In article PMC5915154, “Aloe-emodin as drug candidate for cancer therapy” (Oncotarget, 2018):

Experiments:
CCRF-CEM cells [1] = assay: Detection of reactive oxygen species (H2DCFH-DA, flow cytometry); assay type: cell-based, human
Procedure: 2′,7′-Dichlorofluorescin diacetate (H2DCFH-DA, Sigma-Aldrich) is a cell-permeable non-fluorescent probe used to detect cellular ROS levels. In the presence of ROS, the compound is de-esterified intracellularly and converts into the highly fluorescent 2′,7′-dichlorofluorescein upon oxidation. Thus, it can be measured by flow cytometry. CCRF-CEM cells were re-suspended in PBS and incubated for 30 min withH2DCFH-DA at a concentration of 2 μM. After washing with PBS, the cells were treated with DMSO as negative control, H2O2 and doxorubicin as positive controls or varying concentrations of Aloe-emodin (0.5-, 1-, 2- and 4-fold IC50) for 1 h. The results were assessed by a BD Accuri™ C6 flow cytometer (Becton Dickinson) using FL-1 the channel (488 nm excitation). For each sample, 10^4 cells were counted. The protocol has been recently reported by us.

CCRF-CEM cells [2] = assay: Annexin V/PI detection of apoptosis and necrosis; assay type: cell-based, human
Excerpt: A commercial annexin V/PI detection apoptosis kit was used to detect early apoptosis and necrosis according to the manufacturer’s instructions (Life Technologies, Carlsbad, CA, USA). Annexin V is a calcium-dependent phospholipid-binding protein, which binds to phosphatidylserine (PS). PS is predominantly located at the inner side of the plasma membrane under normal conditions and moves to outer surface of the membrane upon the onset of early apoptosis. This can be detected FITC-labeled annexin V. PI is a marker of late apoptosis and necrosis. We treated aliquots of 1×10^6 CCRF-CEM cells with 0.5-, 1-, 2- and 4-fold IC50 of Aloe-emodin for 48, 72 or 96 h, respectively. After washing the cells with PBS, they were stained with annexin V/FITC at room temperature for 10-15 min. Subsequently, cells were washed again and stained with PI in the dark. Then, the results were analyzed by a BD Accuri™ C6 flow cytometer at excitation wavelength 488 nm and emission wavelength 530 nm to record annexin V/FITC signals. The fluorescence of PI was detected at 488 nm excitation and was measured by a 610/20 nm band pass filter. At least three independent experiments were performed..

[3] = test system: mRNA expression (DUSP6, HHEX, MCMDC2, CRCP) in CCRF-CEM cells; assay: qPCR validation of microarray data; assay type: cell-based, human; details: CCRF-CEM treated vs untreated, normalized to GAPDH
Procedure: Primer sequences of HHEX, MCMDC2 and CRCP were designed using NCBI and GenScript Real Time PCR Primer Design (https://www.genscript.com/ssl-bin/app/primer) websites. DUSP6, HHEX, MCMDC2 and CRCP primers were synthesized by Eurofins MWG Operon (Ebersberg, Germany) and their sequence specificities were checked by NCBI Primer-Blast (http://www.ncbi.nlm.nih.gov/tools/primer-blast). The reaction properties of primers were calculated by Eurofins genomics (https://www.eurofinsgenomics.eu/en/dna-rna-oligonucleotides/oligo-design-more/oligo-property-scan.aspx). The primer sequences were as follows: DUSP6, forward (5′–3′): […], reverse (5′–3′): […] [75]; HHEX, forward: […], reverse: […]; MCMDC2, forward: […], reverse: […]; CRCP, forward: […], reverse: […]. Total RNA was isolated by InviTrap Spin Universal RNA Mini kit (Stratec Molecular) according to the manufacturer’s instruction. One microgram RNA was converted to cDNA using RevertAid H Minus First Strand cDNA Synthesis Kit (Thermo Scientific). The mRNA levels were analyzed by using of 5×Hot Start Tag EvaGreen® qPCR Mix (no ROX) (Axon Labortechnik, Kaiserslautern, Germany) and CFX384™ Real-Time PCR Detection System (Bio-Rad, Munich, Germany). RT-PCR was performed with an initial denaturation at 95°C for 10 second followed by 40 cycles including strand separation at 95°C for 15 s, annealing at 62°C for 30 s and extension at […] for 1 min. The GAPDH, HPRT1 and RLP13 genes were used as housekeeping genes. The expression data were normalized using Bestkeeper software. […] Therefore, GAPDH was used for normalization. Forward and reverse primer sequences of GAPDH were […] for forward and […] for reverse, respectively.
Furthermore, forward and reverse primer sequences of HPRT1 were […] for forward and […] for reverse as well as of RLP13A were TATGCTGCCCCACAAAACC for forward and […] for reverse, respectively. • The quantification method was done as follow: • ΔCt = Ct gene test – Ct endogenous control. • ΔΔCt = ΔCt sample1 – ΔCt calibrator. • RQ = Relative quantification = 2-ΔΔCt.
The RQ is the fold-change compared to the calibrator (untreated sample, time zero, etc.). The calibrator has an RQ value of 1. All samples were compared to the calibrator.

[4] = test system: HEK293 human embryonic kidney cells; assay: Resazurin reduction assay, HEK293; assay type: cell-based; details: 72 h
Excerpt: (§1) The cell lines used in the present work, their origins and maintenance conditions were previously reported. In brief, drug-sensitive CCRF-CEM and multidrug resistant P-glycoprotein-over-expressing CEM/ADR5000 leukemia cells, MDA-MB-231-pcDNA3 breast cancer cells and their transfectant subline MDA-MB-231-BCRP clone 23, HCT116 (p53^+/+) colon cancer cells and its knockout clone HCT116 (p53^-/-), U87.MG glioblastoma multiform cells and their transfectant subline U87.MGΔEGFR as well as HEK293 human embryonic kidney cells transfected with or without a cDNA for ABCB5 were used. The human peripheral mononuclear cells (PMNC) were isolated from fresh blood samples of a healthy donor by using Histopaque® (Sigma-Aldrich, Taufkirchen, Germany).
(§2) Resazurin reduction assay was conducted to test the cytotoxicity of the compounds. This assay is based on the reduction of resazurin to resorufin by viable cells. […] Briefly, aliquots of 0.5×10^4 adherent cells which were allowed to attach overnight and 1×10^4 suspension cells per well were seeded in 96-well-plates with or without the addition of varying concentrations of the test substance to get a total volume of 200 μL/well. After 72 h incubation and addition of resazurin (Sigma-Aldrich) for 4 h, staining was measured by an Infinite M2000 ProTM plate reader (Tecan, Germany) using an excitation wavelength of 544 nm and an emission wavelength of 590 nm. […]

[5] = test system: U87.MG glioblastoma cells; assay: Resazurin reduction assay, U87.MG; assay type: cell-based; details: Homo sapiens, U-87 MG, 72 h
Excerpt: as §1, §2

drug-resistant sublines = assay: Resazurin reduction assay, range over drug-resistant and/or transfected sublines; assay type: cell-based; details: Homo sapiens
Excerpt: as §1, §2

SMILES: O=C1c2cccc(O)c2C(=O)c2c(O)cc(CO)cc21 [Aloe-emodin]
- ROS production, fold changes (CCRF-CEM cells [1]; 0.5-, 1-, 2- or 4-fold IC50, 1 h, dose-dependent): ≥ 1.5 fold
- ROS generation compared with positive controls (CCRF-CEM cells [1]; 1 h, vs doxorubicin (1 μM) or H2O2 (250 μM)): even higher ROS generation than doxorubicin
- apoptotic or necrotic cell death (CCRF-CEM cells [2]; 2- or 4-fold IC50, 96 h): early and late apoptosis as well as early and late necrosis
- apoptotic or necrotic cell death (CCRF-CEM cells [2]; 4-fold IC50, 72 h): early and late apoptosis as well as early and late necrosis
- qPCR data (FC), CRCP [3]: -2.63 FC
- qPCR data (FC), DUSP6 [3]: 1.40 FC
- qPCR data (FC), HHEX [3]: 2.23 FC
- qPCR data (FC), MCMDC2 [3]: -2.47 FC
- IC50 [4]: 16.9 µM
- IC50 [5]: 21.7 µM
- IC50 (drug-resistant sublines): 11.2 to 33.8 µM
